Data set [1] deals with GLP-1R (Homo sapiens, UniProt P43220). Kind of data set: GLP-1R activation: cAMP increase in CHO cells stably expressing GLP-1R. It is filed as cell-based.
Data set [2] can be described thus: Microsomal stability, human liver microsomes (predicted hepatic clearance). The conditions noted are these: predicted from in vitro microsomal stability data.
[3] abbreviates: cAMP increase, CHO cells stably expressing GLP-1R, 10 point dose response, 30 minutes incubation, read-out: EC50.

Read-outs that look alike come from different tables or passages of the source. A value given as a limit tells only on which side of the number the result lay.

Sequence of GLP-1R (P43220 24-463): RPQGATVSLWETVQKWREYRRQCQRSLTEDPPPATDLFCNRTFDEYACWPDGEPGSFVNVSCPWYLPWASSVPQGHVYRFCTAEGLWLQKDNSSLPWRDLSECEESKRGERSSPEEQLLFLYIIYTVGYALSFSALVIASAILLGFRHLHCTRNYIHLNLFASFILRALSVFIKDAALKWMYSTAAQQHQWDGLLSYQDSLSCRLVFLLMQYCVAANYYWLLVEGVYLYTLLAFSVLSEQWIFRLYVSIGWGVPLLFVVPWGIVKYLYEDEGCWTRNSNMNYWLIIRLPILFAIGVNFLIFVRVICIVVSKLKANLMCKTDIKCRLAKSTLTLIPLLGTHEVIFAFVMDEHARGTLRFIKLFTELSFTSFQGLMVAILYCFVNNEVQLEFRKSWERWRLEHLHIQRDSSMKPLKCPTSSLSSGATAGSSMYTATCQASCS

The EC50 is the concentration needed to bring the measured effect to its halfway point. Take `COCCn1c(Cc2ccc(-c3cccc(OCc4ccc(C#N)cc4F)n3)c(Cl)c2)nc2ccc(C(=O)O)cc21` [Example 101, 2-(3-chloro-4-(6-((4-cyano-2-fluorobenzyl)oxy)pyridin-2-yl)benzyl)-1-(2-methoxyethyl)-1H-benzo[d]imidazole-6-carboxylic acid]: the EC50 in data set [1] (setting [3]) stood at 25.9 nM. Moreover, the “Predicted Hepatic Clearance (Pred. Cl.)” value in data set [2] was 0.4 L/h/kg.

With `COCCn1c([C@@H](C)c2ccc(-c3cccc(OCc4ccc(C#N)cc4F)n3)cc2)nc2ccc(C(=O)O)cc21` (racemic) [Example 447, 2-(1-(4-(6-((4-cyano-2-fluorobenzyl)oxy)pyridin-2-yl)phenyl)ethyl)-1-(2-methoxyethyl)-1H-benzo[d]imidazole-6-carboxylic acid], in data set [1] (setting [3]), the EC50 stood at 1100 nM. In addition, the “Predicted Hepatic Clearance (Pred. Cl.)” value in data set [2] is given as 0.3 L/h/kg.

As to `CC1(Cn2c(Cc3ccc(-c4cccc(OCc5ccc(C#N)cc5F)n4)cc3C#N)nc3ccc(C(=O)O)cc32)CC1` [Example 117, 2-(2-cyano-4-(6-((4-cyano-2-fluorobenzyl)oxy)pyridin-2-yl)benzyl)-1-((1-methylcyclopropyl)methyl)-1H-benzo[d]imidazole-6-carboxylic acid], in data set [1] (setting [3]), the EC50 was 62.2 nM. Moreover, in data set [2], the “Predicted Hepatic Clearance (Pred. Cl.)” value is under 0.11 L/h/kg.

As to `C[C@H](O)Cn1c(Cc2cc(F)c(-c3cccc(OCc4ccc(C#N)cc4F)n3)cc2F)nc2ccc(C(=O)O)cc21` [Example 723], a half-maximal response in data set [1] (EC50 (nM)) (EC50) required 5.19 nM. Also, the “Predicted Hepatic Clearance (Pred. Cl.)” value in data set [2] was 0.21 L/h/kg.

Take `COCCn1c(Cc2cnc(-c3cccc(OCc4ccc(C#N)cc4F)n3)cn2)nc2ccc(C(=O)O)cc21` [Example 102, 2-((5-(6-((4-cyano-2-fluorobenzyl)oxy)pyridin-2-yl)pyrazin-2-yl)methyl)-1-(2-methoxyethyl)-1H-benzo[d]imidazole-6-carboxylic acid]: the EC50 in data set [1] (setting [3]) was 56.5 nM. Moreover, the “Predicted Hepatic Clearance (Pred. Cl.)” value in data set [2] is listed as 0.31 L/h/kg.

For `N#CCC1(Cn2c(Cc3ccc(-c4ccnc(OCc5ccc(Cl)cc5F)n4)cc3F)nc3ccc(C(=O)O)cc32)CC1` [Example 79, 2-(4-(2-((4-chloro-2-fluorobenzyl)oxy)pyrimidin-4-yl)-2-fluorobenzyl)-1-((1-(cyanomethyl)cyclopropyl)methyl)-1H-benzo[d]imidazole-6-carboxylic acid], the half-maximal effective concentration (EC50) in data set [1] (setting [3]) came out at 1.04 nM. The “Predicted Hepatic Clearance (Pred. Cl.)” value in data set [2] is on record as 0.53 L/h/kg.

With `N#Cc1ccc(COc2cccc(-c3cc(F)c(Cc4nc5ccc(C(=O)O)cc5n4[C@@H]4CCNC4=O)cc3F)n2)c(F)c1` [Example 631], the EC50 in data set [1] (setting [3]) worked out at 74.9 nM. Moreover, the “Predicted Hepatic Clearance (Pred. Cl.)” value in data set [2] was 0.18 L/h/kg.

`N#Cc1ccc(COc2cccc(-c3cc(F)c(Cc4nc5ccc(C(=O)O)cc5n4CCN4CCOCC4)cc3F)n2)c(F)c1` [Example 561, 2-(4-(6-((4-cyano-2-fluorobenzyl)oxy)pyridin-2-yl)-2,5-difluorobenzyl)-1-(2-morpholinoethyl)-1H-benzo[d]imidazole-6-carboxylic acid]: the EC50 in data set [1] (read-out: EC50) stood at 24.1 nM. Further, the “Predicted Hepatic Clearance (Pred. Cl.)” value in data set [2] is 0.57 L/h/kg.

As for `COCCn1c(Cc2cc(F)c(-c3cccc(OCc4ccc(C(F)(F)F)c(F)c4F)n3)cc2F)nc2ccc(C(=O)O)cc21` [Example 872, 2-[[4-[6-[[2,3-difluoro-4-(trifluoromethyl)phenyl]methoxy]-2-pyridyl]-2,5-difluoro-phenyl]methyl]-3-(2-methoxyethyl)benzimidazole-5-carboxylic acid], in data set [1] (setting [3]), the EC50 turned out to be 5.09 nM. Also, the “Predicted Hepatic Clearance (Pred. Cl.)” value in data set [2] was 0.11 L/h/kg.

Take `N#Cc1ccc(COc2cccc(-c3cc(F)c(Cc4nc5ccc(C(=O)O)cc5n4Cc4cnccn4)cc3F)n2)c(F)c1` [Example 310, 2-(4-(6-((4-cyano-2-fluorobenzyl)oxy)pyridin-2-yl)-2,5-difluorobenzyl)-1-(pyrazin-2-ylmethyl)-1H-benzo[d]imidazole-6-carboxylic acid]: the EC50 in data set [1] (setting [3]) is 16.3 nM. Further, the “Predicted Hepatic Clearance (Pred. Cl.)” value in data set [2] is reported as 0.38 L/h/kg.

Turning to `N#Cc1ccc(COc2cccc(-c3ccc(Cc4nc5ccc(C(=O)O)cc5n4CC4(C#N)CC4)c(F)c3)n2)c(F)c1` [Example 13, 2-(4-(6-((4-cyano-2-fluorobenzyl)oxy)pyridin-2-yl)-2-fluorobenzyl)-1-((1-cyanocyclopropyl)methyl)-1H-benzo[d]imidazole-6-carboxylic acid], the 50% effective concentration (EC50) in data set [1] (setting [3]) is 2.7 nM. Besides, in data set [2], the “Predicted Hepatic Clearance (Pred. Cl.)” value is reported as 0.25 L/h/kg.

On to `COCCn1c(Cc2ncc(-c3cccc(OCc4ccc(C#N)cc4F)n3)cc2Cl)nc2ccc(C(=O)O)cc21` [Example 518, 2-((5′-chloro-6-((4-cyano-2-fluorobenzyl)oxy)-[2,3′-bipyridin]-6′-yl)methyl)-1-(2-methoxyethyl)-1H-benzo[d]imidazole-6-carboxylic acid], for which the EC50 in data set [1] (setting [3]) is 43.1 nM. The “Predicted Hepatic Clearance (Pred. Cl.)” value in data set [2] is on record as 0.32 L/h/kg.

Consider `N#Cc1ccc(COc2cccc(-c3ccc(Cc4nc5ccc(C(=O)O)cc5n4CCC4(CF)CC4)c(F)c3)n2)c(F)c1` [Example 394, 2-(4-(6-((4-cyano-2-fluorobenzyl)oxy)pyridin-2-yl)-2-fluorobenzyl)-1-(2-(1-(fluoromethyl)cyclopropyl)ethyl)-1H-benzo[d]imidazole-6-carboxylic acid], for which, in data set [1] (setting [3]), the EC50 came out at 6.06 nM. In data set [2], the “Predicted Hepatic Clearance (Pred. Cl.)” value is on record as 0.25 L/h/kg.

Turning to `COCCn1c(Cc2ccc(-c3cccc(OCc4ccc(C5(C#N)CC5)cc4)n3)cc2F)nc2ccc(C(=O)O)cc21` [Example 266, 2-(4-(6-((4-(1-cyanocyclopropyl)benzyl)oxy)pyridin-2-yl)-2-fluorobenzyl)-1-(2-methoxyethyl)-1H-benzo[d]imidazole-6-carboxylic acid], the EC50 in data set [1] (setting [3]) amounted to 51.4 nM. In data set [2], the “Predicted Hepatic Clearance (Pred. Cl.)” value is 0.37 L/h/kg.

With `COCCn1c(Cc2cc(F)c(-c3ncc(F)c(OCc4ccc(C#N)cc4F)n3)cc2F)nc2ccc(C(=O)O)cc21` [Example 160, 2-(4-(4-((4-cyano-2-fluorobenzyl)oxy)-5-fluoropyrimidin-2-yl)-2,5-difluorobenzyl)-1-(2-methoxyethyl)-1H-benzo[d]imidazole-6-carboxylic acid], the EC50 in data set [1] (setting [3]) came out at 10.2 nM. Moreover, the “Predicted Hepatic Clearance (Pred. Cl.)” value in data set [2] is given as 0.3 L/h/kg.

With `N#Cc1ccc(COc2nccc(-c3cc(F)c(Cc4nc5c(F)cc(C(=O)O)cc5n4CC45CC(CO4)C5)cc3F)n2)c(F)c1` [Example 644], the EC50 in data set [1] (setting [3]) is 0.69 nM. Besides, the “Predicted Hepatic Clearance (Pred. Cl.)” value in data set [2] was 0.48 L/h/kg.

In the case of `COCCn1c(Cc2cc(F)c(-c3cccc(OCc4cnc(C(F)(F)F)s4)n3)cc2F)nc2ccc(C(=O)O)cc21` [Example 862], in data set [1] (setting [3]), the EC50 was found to be 16.2 nM. For the same compound, the “Predicted Hepatic Clearance (Pred. Cl.)” value in data set [2] is 0.26 L/h/kg.

Take `COCCn1c(Cc2cc(F)c(-c3ccc(F)c(OCc4ccc(C(F)(F)F)cc4F)n3)cc2F)nc2c(F)cc(C(=O)O)cc21` [Example 761]: in data set [1] (setting [3]), the EC50 came out at 0.51 nM. In data set [2], the “Predicted Hepatic Clearance (Pred. Cl.)” value was 0.11 L/h/kg.

Consider `COCCn1c(Cc2cc(F)c(-c3cccc(OCc4ccc(C#N)cc4F)n3)cc2F)nc2cc(F)c(C(=O)O)cc21` [Example 218, 2-(4-(6-((4-cyano-2-fluorobenzyl)oxy)pyridin-2-yl)-2,5-difluorobenzyl)-5-fluoro-1-(2-methoxyethyl)-1H-benzo[d]imidazole-6-carboxylic acid], for which the EC50 in data set [1] (setting [3]) worked out at 19.1 nM. The “Predicted Hepatic Clearance (Pred. Cl.)” value in data set [2] is listed as 0.47 L/h/kg.

Regarding `N#Cc1ccc(COc2nccc(-c3ccc(Cc4nc5ccc(C(=O)O)cc5n4Cc4ncco4)cc3F)n2)c(F)c1` [Example 622], the EC50 in data set [1] (setting [3]) was determined as 2.68 nM. In addition, in data set [2], the “Predicted Hepatic Clearance (Pred. Cl.)” value is listed as 0.38 L/h/kg.

With `CC12CCC(Cn3c(Cc4cc(F)c(-c5cccc(OCc6ccc(C#N)cc6F)n5)cc4F)nc4ccc(C(=O)O)cc43)(C1)OC2` (stereo not drawn) [Example 714], the EC50 in data set [1] (setting [3]) was 24.9 nM. For the same compound, the “Predicted Hepatic Clearance (Pred. Cl.)” value in data set [2] was 0.11 L/h/kg.

As for `COC1(Cn2c(Cc3cc(F)c(-c4cccc(OCc5ccc(C#N)cc5F)n4)cc3F)nc3ccc(C(=O)O)cc32)CCOC1` (stereo not drawn) [Example 627], the EC50 in data set [1] (setting [3]) was found to be 2.19 nM. Moreover, the “Predicted Hepatic Clearance (Pred. Cl.)” value in data set [2] is 0.47 L/h/kg.

In the case of `Cn1ncnc1Cn1c(Cc2cc(F)c(-c3cccc(OCc4ccc(C#N)cc4F)n3)cc2F)nc2ccc(C(=O)O)cc21` [Example 578, 2-(4-(6-((4-cyano-2-fluorobenzyl)oxy)pyridin-2-yl)-2,5-difluorobenzyl)-1-((1-methyl-1H-1,2,4-triazol-5-yl)methyl)-1H-benzo[d]imidazole-6-carboxylic acid], in data set [1] (setting [3]), the EC50 was found to be 13.8 nM. In addition, the “Predicted Hepatic Clearance (Pred. Cl.)” value in data set [2] is listed as 0.28 L/h/kg.

For `N#Cc1ccc(COc2cccc(-c3cc(F)c(Cc4nc5ccc(C(=O)O)cc5n4[C@H]4COC[C@H]4O)cc3F)n2)c(F)c1` [Example 613], the EC50 in data set [1] (setting [3]) was found to be 0.54 nM. Moreover, the “Predicted Hepatic Clearance (Pred. Cl.)” value in data set [2] is 0.39 L/h/kg.

For the compound `COCC1(Cn2c(Cc3ccc(-c4cccc(OCc5ccc(C#N)cc5F)n4)cc3F)nc3ccc(C(=O)O)cc32)CC1` [Example 380, 2-(4-(6-((4-cyano-2-fluorobenzyl)oxy)pyridin-2-yl)-2-fluorobenzyl)-1-((1-(methoxymethyl)cyclopropyl)methyl)-1H-benzo[d]imidazole-6-carboxylic acid], in data set [1] (setting [3]), the EC50 stood at 7.72 nM. Besides, the “Predicted Hepatic Clearance (Pred. Cl.)” value in data set [2] is listed as under 0.11 L/h/kg.

Consider `COCCn1c(Cc2ccc(-c3cccc(OCn4ccc(C(N)=O)cc4=O)n3)cc2F)nc2ccc(C(=O)O)cc21` [Example 502, 2-(4-(6-((4-carbamoyl-2-oxopyridin-1(2H)-yl)methoxy)pyridin-2-yl)-2-fluorobenzyl)-1-(2-methoxyethyl)-1H-benzo[d]imidazole-6-carboxylic acid], for which the EC50 in data set [1] (setting [3]) amounted to 2380 nM. For the same compound, the “Predicted Hepatic Clearance (Pred. Cl.)” value in data set [2] was 0.16 L/h/kg.

With `N#Cc1ccc(COc2cccc(-c3cc(F)c(Cc4nc5ccc(C(=O)O)cc5n4CC4CCCCO4)cc3F)n2)c(F)c1` (stereo not drawn) [Example 640], the EC50 in data set [1] (setting [3]) worked out at 16.6 nM. Further, the “Predicted Hepatic Clearance (Pred. Cl.)” value in data set [2] is recorded as 0.51 L/h/kg.
